These results are taken from ChEMBL document CHEMBL1926501 (J Med Chem, 2011).

The target of data set [1] is T1, Amine oxidase [flavin-containing] A (Rattus norvegicus, UniProt P21396).
T1 sequence (P21396 whole entry): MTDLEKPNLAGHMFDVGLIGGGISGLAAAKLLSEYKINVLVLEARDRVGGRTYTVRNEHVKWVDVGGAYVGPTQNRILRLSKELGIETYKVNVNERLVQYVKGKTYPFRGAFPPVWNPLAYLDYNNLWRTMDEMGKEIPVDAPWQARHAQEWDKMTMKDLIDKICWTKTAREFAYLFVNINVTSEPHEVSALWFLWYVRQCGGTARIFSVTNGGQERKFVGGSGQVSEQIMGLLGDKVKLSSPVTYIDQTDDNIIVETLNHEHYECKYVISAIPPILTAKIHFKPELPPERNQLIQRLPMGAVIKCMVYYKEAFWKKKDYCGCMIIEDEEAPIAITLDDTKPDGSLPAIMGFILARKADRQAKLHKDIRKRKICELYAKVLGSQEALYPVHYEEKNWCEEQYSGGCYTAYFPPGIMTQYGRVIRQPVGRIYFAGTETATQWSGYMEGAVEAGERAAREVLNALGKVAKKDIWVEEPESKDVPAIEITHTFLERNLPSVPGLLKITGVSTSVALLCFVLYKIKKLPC
Description: Inhibition of rat liver mitochondrial MAO-A using [14C]-5-hydroxytryptamine after 30 mins by scintillation counting

Data set [2] concerns the target T2, Amine oxidase [flavin-containing] B (Rattus norvegicus, UniProt P19643).
T2 sequence (P19643 whole entry): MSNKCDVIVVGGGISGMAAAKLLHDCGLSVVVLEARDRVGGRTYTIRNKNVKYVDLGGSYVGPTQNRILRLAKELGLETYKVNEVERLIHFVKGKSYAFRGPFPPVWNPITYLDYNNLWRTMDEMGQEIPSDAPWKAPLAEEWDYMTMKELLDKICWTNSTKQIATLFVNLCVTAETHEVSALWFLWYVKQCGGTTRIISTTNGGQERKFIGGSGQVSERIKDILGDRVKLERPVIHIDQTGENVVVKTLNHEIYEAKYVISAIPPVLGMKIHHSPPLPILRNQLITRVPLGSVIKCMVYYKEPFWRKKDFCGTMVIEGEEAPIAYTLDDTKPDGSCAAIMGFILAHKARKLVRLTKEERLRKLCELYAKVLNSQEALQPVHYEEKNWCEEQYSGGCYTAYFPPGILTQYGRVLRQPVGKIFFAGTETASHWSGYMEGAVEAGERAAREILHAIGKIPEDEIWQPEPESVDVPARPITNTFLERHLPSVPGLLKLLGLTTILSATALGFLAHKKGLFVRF
Description: Inhibition of rat liver mitochondrial MAO-B using [14C]-phenylethylamine after 30 mins by scintillation counting

Data set [3] deals with Acetylcholinesterase (Electrophorus electricus, UniProt O42275).
Description: Inhibition of Electrophorus electricus AchE using acetylthiocholine iodide as substrate preincubated for 10 mins measured after 15 mins of substrate addition by Ellman's method
The target of data set [4] is T2, Amine oxidase [flavin-containing] B. As to the kind of experiment: Non-competitive inhibition of rat liver mitochondrial MAO-B using phenylethylamine as substrate by Line-Weaver Burk plot analysis.
The target is the same in data set [5]. Briefly: Time-dependent inhibition of rat liver mitochondrial MAO-B using phenylethylamine at 45 nM. To be noted: 0.045 µM.
The target is the same in data set [6]. Briefly: Reversible inhibition of rat liver mitochondrial MAO-B using phenylethylamine assessed as recovered enzyme activity at 45 nM preincubated for 30 mins measured after three consecutive washes with buffer. Set-up: scale not given: the % may be the effect or the level left. Conditions: read-out: Activity; call rule not given here.
For data set [7], the target named is T1, Amine oxidase [flavin-containing] A. As to the kind of experiment: Irreversible inhibition of rat liver mitochondrial MAO-A using 5-hydroxytryptamine as substrate at 6 nM preincubated for 30 mins measured after three consecutive washes with buffer. Conditions: 0.006 µM.
Data set [8] addresses T3, Acetylcholinesterase (Homo sapiens, UniProt P22303). Briefly: Inhibition of cerebral human recombinant AchE expressed in HEK293 cells using acetylthiocholine iodide as substrate preincubated for 10 mins measured after 15 mins of substrate addition by Ellman's method. (In Ellman's method for cholinesterases, released thiocholine reacts with DTNB.)
The target in data set [9] is T1, Amine oxidase [flavin-containing] A. As to the kind of experiment: Time-dependent inhibition of rat liver mitochondrial MAO-A using 5-hydroxytryptamine at 6 nM by scintillation counting. Conditions: 0.006 µM.
Data set [10] shares this target. Briefly: Irreversible inhibition of rat liver mitochondrial MAO-A using 5-hydroxytriptamine as substrate assessed as substrate consumption at 10 nM measured up to 420 mins. To be noted: 7 h, 0.01 µM.
Data set [11] has the same target. As to the kind of experiment: Irreversible inhibition of rat liver mitochondrial MAO-A using 5-hydroxytryptamine as substrate at 6 nM preincubated for 30 mins measured after three consecutive centrifugation. To be noted: 0.006 µM.
The target in data set [12] is T2, Amine oxidase [flavin-containing] B. Briefly: Reversible inhibition of rat liver mitochondrial MAO-B using phenylethylamine as substrate assessed as substrate consumption at 100 nM preincubated for 30 mins measured up to 420 mins. To be noted: 7 h, 0.1 µM.
Data set [13] concerns the target T1, Amine oxidase [flavin-containing] A. Briefly: Irreversible inhibition of rat liver mitochondrial MAO-A using 5-hydroxytriptamine as substrate assessed as substrate consumption at 10 nM preincubated for 30 mins measured up to 420 mins. Conditions: 7 h, 0.01 µM.
In data set [14] the target is T3, Acetylcholinesterase. To be noted: 100 uM.
Description: Inhibition of human AChE-induced amyloid beta (1 to 40) aggregation at 100 uM measured every 10 mins for 10 hrs by thioflavin T-based fluorometric analysis
Data set [15] deals with Cholinesterase (Homo sapiens, UniProt P06276). Briefly: Inhibition of human serum BuchE using butyrylthiocholine iodide as substrate preincubated for 10 mins measured after 15 mins of substrate addition by Ellman's method.
The target in data set [16] is T2, Amine oxidase [flavin-containing] B. Briefly: Irreversible inhibition of rat liver mitochondrial MAO-B using phenylethylamine as substrate assessed as substrate consumption at 100 nM measured up to 420 mins. To be noted: 7 h, 0.1 µM.
For data set [17], the target named is Cholinesterase (Equus caballus, UniProt P81908).
Cholinesterase (Equus caballus, UniProt P81908), sequence (P81908 whole entry): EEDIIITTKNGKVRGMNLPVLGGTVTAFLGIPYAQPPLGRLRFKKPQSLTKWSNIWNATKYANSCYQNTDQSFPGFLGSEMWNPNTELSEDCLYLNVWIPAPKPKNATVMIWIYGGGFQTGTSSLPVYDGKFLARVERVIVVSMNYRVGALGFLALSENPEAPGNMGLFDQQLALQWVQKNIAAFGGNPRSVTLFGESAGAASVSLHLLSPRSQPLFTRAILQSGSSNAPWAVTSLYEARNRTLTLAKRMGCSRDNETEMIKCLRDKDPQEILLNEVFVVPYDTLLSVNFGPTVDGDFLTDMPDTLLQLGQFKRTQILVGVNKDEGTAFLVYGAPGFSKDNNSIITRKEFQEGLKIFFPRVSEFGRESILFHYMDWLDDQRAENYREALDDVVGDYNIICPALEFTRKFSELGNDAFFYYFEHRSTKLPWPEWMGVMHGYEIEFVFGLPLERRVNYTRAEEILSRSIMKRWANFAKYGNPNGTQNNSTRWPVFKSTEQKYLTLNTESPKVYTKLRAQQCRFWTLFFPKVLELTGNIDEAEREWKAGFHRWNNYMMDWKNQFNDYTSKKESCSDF
Description: Inhibition of equine serum BuchE using butyrylthiocholine iodide as substrate preincubated for 10 mins measured after 15 mins of substrate addition by Ellman's method

Acetylcholinesterase (Electrophorus electricus, UniProt O42275), sequence (O42275 whole entry): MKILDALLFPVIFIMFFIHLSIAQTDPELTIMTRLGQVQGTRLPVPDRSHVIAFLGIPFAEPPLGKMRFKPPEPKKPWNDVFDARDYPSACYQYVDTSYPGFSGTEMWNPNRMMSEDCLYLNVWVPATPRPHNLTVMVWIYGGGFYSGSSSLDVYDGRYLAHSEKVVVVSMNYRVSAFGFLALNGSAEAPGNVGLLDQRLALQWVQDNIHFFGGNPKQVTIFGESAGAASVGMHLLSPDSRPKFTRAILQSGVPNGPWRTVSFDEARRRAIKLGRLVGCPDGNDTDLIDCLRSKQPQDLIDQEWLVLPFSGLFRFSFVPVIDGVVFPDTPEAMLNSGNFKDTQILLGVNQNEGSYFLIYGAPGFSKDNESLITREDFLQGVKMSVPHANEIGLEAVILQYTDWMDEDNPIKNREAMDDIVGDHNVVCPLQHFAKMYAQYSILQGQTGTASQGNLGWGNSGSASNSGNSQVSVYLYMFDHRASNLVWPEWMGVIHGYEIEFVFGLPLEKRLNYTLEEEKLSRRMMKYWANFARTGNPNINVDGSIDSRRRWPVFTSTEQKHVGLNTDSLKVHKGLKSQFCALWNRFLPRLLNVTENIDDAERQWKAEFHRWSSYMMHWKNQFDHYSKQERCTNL
T3 sequence (P22303 whole entry): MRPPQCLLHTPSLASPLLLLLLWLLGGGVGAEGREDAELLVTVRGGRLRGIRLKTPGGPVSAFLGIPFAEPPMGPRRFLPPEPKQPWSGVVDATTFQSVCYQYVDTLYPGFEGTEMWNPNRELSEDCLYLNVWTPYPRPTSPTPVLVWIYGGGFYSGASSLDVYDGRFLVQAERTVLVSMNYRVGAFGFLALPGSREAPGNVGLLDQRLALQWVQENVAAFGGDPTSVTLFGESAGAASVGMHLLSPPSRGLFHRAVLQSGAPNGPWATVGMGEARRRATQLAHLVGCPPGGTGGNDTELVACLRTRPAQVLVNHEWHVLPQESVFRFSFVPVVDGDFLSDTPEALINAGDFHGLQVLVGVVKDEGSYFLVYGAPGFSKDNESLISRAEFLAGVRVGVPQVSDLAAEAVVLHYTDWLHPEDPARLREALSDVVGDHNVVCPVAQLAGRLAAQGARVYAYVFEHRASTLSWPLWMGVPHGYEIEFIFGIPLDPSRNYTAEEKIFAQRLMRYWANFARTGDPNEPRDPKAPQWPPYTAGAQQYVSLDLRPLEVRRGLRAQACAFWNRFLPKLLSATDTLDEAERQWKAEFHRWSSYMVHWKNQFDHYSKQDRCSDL
Cholinesterase (Homo sapiens, UniProt P06276), sequence (P06276 whole entry): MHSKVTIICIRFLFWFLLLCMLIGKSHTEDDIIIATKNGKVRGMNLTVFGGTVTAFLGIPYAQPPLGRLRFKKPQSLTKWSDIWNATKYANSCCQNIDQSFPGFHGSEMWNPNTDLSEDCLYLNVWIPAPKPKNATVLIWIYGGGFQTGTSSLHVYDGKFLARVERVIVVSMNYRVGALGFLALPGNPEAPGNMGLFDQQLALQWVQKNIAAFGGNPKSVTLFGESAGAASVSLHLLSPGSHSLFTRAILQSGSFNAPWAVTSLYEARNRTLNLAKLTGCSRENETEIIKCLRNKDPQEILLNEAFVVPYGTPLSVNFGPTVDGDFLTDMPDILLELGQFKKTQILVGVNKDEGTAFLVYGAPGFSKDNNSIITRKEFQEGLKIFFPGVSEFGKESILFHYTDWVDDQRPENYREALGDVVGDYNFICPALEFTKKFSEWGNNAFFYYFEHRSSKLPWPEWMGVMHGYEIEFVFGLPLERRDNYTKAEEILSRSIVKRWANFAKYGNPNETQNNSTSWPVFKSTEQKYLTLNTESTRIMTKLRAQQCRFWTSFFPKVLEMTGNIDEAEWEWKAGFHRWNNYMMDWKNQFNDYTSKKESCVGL

Regarding `C#CCN(C)Cc1cc2cc(OCCCN3CCN(Cc4ccccc4)CC3)ccc2n1C`, the IC50 (commonly the point on the concentration scale where inhibition reaches its midpoint) in data set [1] is 0.031 µM; in data set [2], 1.6 µM; against Acetylcholinesterase [3], over 100 µM.
With `C#CCN(C)Cc1cc2cc(OCCCCC3CCN(Cc4ccccc4)CC3)ccc2n1C`, the IC50 turned out to be 0.01 µM in data set [1] and 2.7 µM in data set [2].
For `C#CCN(C)Cc1cc2cc(OCCN3CCC(Cc4ccccc4)CC3)ccc2n1C`, the IC50 was 0.14 µM in [1], 1.4 µM in [2] and over 100 µM against Acetylcholinesterase [3].
Turning to `C#CCN(C)Cc1cc2cc(OCCCC3CCN(Cc4ccccc4)CC3)ccc2n1C`, in data set [4], the Ki – broadly, a dissociation constant, usually derived from enzyme kinetics or from competition with a known ligand – stood at 0.011 µM. Also, the TDI result in data set [5] and in data set [9] was “Active” in each case. The activity at 0.045 µM in data set [6] was determined as 80.5%. Besides, the “inhibition (INH)” value in data set [7], in [10], in [11], in data set [12], in data set [13] and in data set [16] was “Active” each time. Moreover, the IC50 was found to be 0.38 µM on Acetylcholinesterase [8] and 1.7 µM on Cholinesterase [15]. Moreover, on Acetylcholinesterase [14], the inhibition (as a rule, the percentage by which the read-out fell short of the control) was 32.4%.
Take `C#CCN(C)Cc1cc2cc(OCCCN3CCC(Cc4ccccc4)CC3)ccc2n1C`: inhibition in data set [2] was half-maximal at 11 µM (IC50).
In the case of `C#CCN(C)Cc1cc2cc(OCc3ccccc3)ccc2n1C`, the IC50 against Cholinesterase [17] and at Acetylcholinesterase [3] was over 100 µM each time.
